The supplement of paper PMC10307832

Legend:
Assay in all cases: relative viability (nuclei count vs DMSO), 5 days (fraction); higher = more cells survive
NCI-H2405 = system: NCI-H2405
Procedure, shortened: (§1)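 Lung cancer cell lines in 1536-well plates got either a single drug or a fixed anchor-drug dose together with five library-drug doses (not always all listed) in √10 steps, by pin tool, on the day after seeding. Nuclei were counted after 5 days, and relative viability is the treated-to-vehicle ratio of nuclei counts. Values are medians of duplicate plates.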

ChaGo-K-1 = system: ChaGo-K-1
Procedure, shortened: as §1

HCC-827 = system: HCC-827
Procedure, shortened: as §1

PC-14 = system: PC-14
Procedure, shortened: as §1

NCI-H23 = system: NCI-H23
Procedure, shortened: as §1

NCI-H650 = system: NCI-H650
Procedure, shortened: as §1

NCI-H661 = system: NCI-H661
Procedure, shortened: as §1

LCLC-97TM1 = system: LCLC-97TM1
Procedure, shortened: as §1

LC-2-ad = system: LC-2-ad
Procedure, shortened: as §1

RERF-LC-KJ = system: RERF-LC-KJ
Procedure, shortened: as §1

NCI-H1666 = system: NCI-H1666
Procedure, shortened: as §1

NCI-H647 = system: NCI-H647
Procedure, shortened: as §1

COc1cc(N2CCC(C(N)=O)CC2)ccc1Nc1nc(N)c(Cl)c(Nc2ccccc2S(=O)(=O)C(C)C)n1 [HG-5-88-01] + CCNC(=O)c1noc(-c2cc(C(C)C)c(O)cc2O)c1-c1ccc(CN2CCOCC2)cc1 [Luminespib] (partner 0.01 µM)
relative viability (NCI-H2405; first compound 1.265 µM): 0.457 | relative viability (NCI-H2405; first compound 4 µM): 0.673 | relative viability (ChaGo-K-1; first compound 0.04 µM): 0.572 | relative viability (ChaGo-K-1; first compound 0.1265 µM): 0.682 | relative viability (ChaGo-K-1; first compound 0.4 µM): 0.516 | relative viability (ChaGo-K-1; first compound 1.265 µM): 0.66 | relative viability (ChaGo-K-1; first compound 4 µM): 0.733 | relative viability (HCC-827; first compound 0.04 µM): 0.767 | relative viability (HCC-827; first compound 0.1265 µM): 0.86 | relative viability (HCC-827; first compound 0.4 µM): 0.575 | relative viability (HCC-827; first compound 1.265 µM): 0.581 | relative viability (HCC-827; first compound 4 µM): 0.361 | relative viability (PC-14; first compound 0.04 µM): 0.173 | relative viability (PC-14; first compound 0.1265 µM): 0.209 | relative viability (PC-14; first compound 0.4 µM): 0.181 | relative viability (PC-14; first compound 1.265 µM): 0.131 | relative viability (PC-14; first compound 4 µM): 0.194 | relative viability (NCI-H23; first compound 0.04 µM): 0.215 | relative viability (NCI-H23; first compound 0.1265 µM): 0.203 | relative viability (NCI-H23; first compound 0.4 µM): 0.225 | relative viability (NCI-H23; first compound 1.265 µM): 0.187 | relative viability (NCI-H23; first compound 4 µM): 0.241 | relative viability (NCI-H650; first compound 0.04 µM): 0.87 | relative viability (NCI-H650; first compound 0.1265 µM): 0.802 | relative viability (NCI-H650; first compound 0.4 µM): 0.816 | relative viability (NCI-H650; first compound 1.265 µM): 0.63 | relative viability (NCI-H650; first compound 4 µM): 0.772 | relative viability (NCI-H661; first compound 0.04 µM): 0.938 | relative viability (NCI-H661; first compound 0.1265 µM): 0.964 | relative viability (NCI-H661; first compound 0.4 µM): 1.04 | relative viability (NCI-H661; first compound 1.265 µM): 1.03 | relative viability (NCI-H661; first compound 4 µM): 0.951 | relative viability (LCLC-97TM1; first compound 0.04 µM): 0.864 | relative viability (LCLC-97TM1; first compound 0.1265 µM): 0.647 | relative viability (LCLC-97TM1; first compound 0.4 µM): 0.713 | relative viability (LCLC-97TM1; first compound 1.265 µM): 0.511 | relative viability (LCLC-97TM1; first compound 4 µM): 0.301 | relative viability (LC-2-ad; first compound 0.04 µM): 1.05 | relative viability (LC-2-ad; first compound 0.1265 µM): 1.17 | relative viability (LC-2-ad; first compound 0.4 µM): 1.13 | relative viability (LC-2-ad; first compound 1.265 µM): 0.812 | relative viability (LC-2-ad; first compound 4 µM): 1.06 | relative viability (RERF-LC-KJ; first compound 0.04 µM): 1.4 | relative viability (RERF-LC-KJ; first compound 0.1265 µM): 1.33 | relative viability (RERF-LC-KJ; first compound 0.4 µM): 1.25 | relative viability (RERF-LC-KJ; first compound 1.265 µM): 1.23 | relative viability (RERF-LC-KJ; first compound 4 µM): 0.963 | relative viability (NCI-H1666; first compound 0.04 µM): 1.05 | relative viability (NCI-H1666; first compound 0.1265 µM): 0.991 | relative viability (NCI-H1666; first compound 0.4 µM): 0.948 | relative viability (NCI-H1666; first compound 1.265 µM): 0.925 | relative viability (NCI-H1666; first compound 4 µM): 0.777 | relative viability (NCI-H647; first compound 0.04 µM): 0.25 | relative viability (NCI-H647; first compound 0.1265 µM): 0.363 | relative viability (NCI-H647; first compound 0.4 µM): 0.13 | relative viability (NCI-H647; first compound 1.265 µM): 0.148 | relative viability (NCI-H647; first compound 4 µM): 0.248
